Measured values reported in the NIST ThermoML archive (doi:10.1016/j.fluid.2013.12.002).
Numbers after ± are expanded uncertainties.

Conditions: Liquid, Ebulliometric method (Recirculating still)

Cc1ccccc1 [toluene]
vapor or sublimation pressure (383.81 K): 101.33 ± 1.4 kPa

O=Cc1ccccc1 [benzaldehyde]
vapor or sublimation pressure (377.63 K): 10 ± 0.15 kPa
vapor or sublimation pressure (396.65 K): 20 ± 0.31 kPa
vapor or sublimation pressure (408.67 K): 30 ± 0.45 kPa

c1ccccc1 [benzene]
vapor or sublimation pressure (353.26 K): 101.33 ± 1.4 kPa

O=CC=Cc1ccccc1 [(E)-3-phenyl-2-propanal]
vapor or sublimation pressure (442.84 K): 10 ± 0.15 kPa
vapor or sublimation pressure (463.15 K): 20 ± 0.33 kPa
vapor or sublimation pressure (475.83 K): 30 ± 0.49 kPa
